Patent US4223041A, “Urea derivatives to treat anxiety and aggressivity” (Labaz, priority 1976, dated 1980)

Legend:
[1] = "Electrically-provoked combat" test (anxiolytic action); assay type: in vivo, mouse; conditions: for protection against anxiety: same experimental conditions
From the text: Under certain conditions, a pair of mice reacts to an electric stimulus by a series of combats which are provoked by the anxiety felt by the animals as a result of the electric shock. This anxiety is expressed by a combat with the other animal which is rendered responsible. For this reason, the test described hereunder can be considered as a means of evaluating the anxiolytic action of a compound. Two mice which have been previously on a diet consisting only of water are placed together in a cage. They are then submitted to a series of electric impulses of an intensity varying between 40 and 80 volts according to the sensitivity of the animals. The test is first carried out with untreated animals as controls and then with the same animals treated 30 minutes before the test with a dose of the compound to be studied.
Note is taken on the number of combats engaged. The results are expressed in percentage of decrease in the number of combats engaged by the treated animals in comparison with the number of combats registered before treatment.

[2] = rota rod test (neurotoxicity); assay type: in vivo, mouse; conditions: for % of failures in rota rod test: mice, 30 min after administration; for Rota rod (% of failures): comparison at 25%-protection dose of four plates test
Method: The test used was that known as the rota rod test described by BOISSIER (Therapie 1958 XIII pp. 1074-1118).
This test aims at determining the ability of mice to coordinate their movements by seeing to what extent they can remain on a roller turning at a rate of 4 revolutions per minute for two minutes. The trial was carried out thirty minutes after administration by oral route of the compound to be studied and the percentage of failures was noted.
The value of this test is twofold. Failure on the part of the animals gives a very early indication of the slightest damage to the meuromuscular functions which cannot be discerned by any other means. Secondly, this test serves as an element of comparison for drawing up index figures involving the results obtained with other tests.

[3] = Action on the pentylenetetrazole-induced seizure (anticonvulsant activity); assay type: in vivo, mouse
Method: The purpose of this test which is carried out on mice is to determine whether the compounds of the invention, when given preventively by oral route, are capable at certain doses of protecting some of the animals against the epileptic seizure produced by a predetermined dose of pentylenetetrazole which would be 100% fatal in the absence of the compound.
The compound to be studied was administered fifteen minutes before an injection of 125 mg/kg of pentylenetetrazole and note was taken of the number of deaths occurring during the three hours following this injection. The results were expressed in percentage of protection of the animals against death at the dose studied.

[4] = Four plates test (anxiolytic action); assay type: in vivo, mouse; conditions: for ED25: po, read-out: ED25 in the four plates test (dose which offers 25%-protection against anxiety); for positive result in four plates test without sedative effect: at ED25 of four plates test
From the text: This test, which is specific to the anxiolytics, was undertaken with the mouse, thirty minutes after the oral administration of the compound to be studied.
It consists in placing mice in a box with fairly high walls, of which the bottom comprises four square plates. These plates, which all have the same dimensions, are separated from each other by a central axis and are alternately electrified by the positive and negative poles of a source of electric current. There is a space of a few millimeters between adjacent plates.
The mouse placed in this apparatus explores it and thus passes over the different plates in succession. Note is taken of the number of times each animal passes over the plates during one minute. When the current is switched on, the mouse passing over the plates receives an electric shock (80 V), which provokes a gradual decrease in the exploratory movements, and finally brings the animals to a complete stop.
Anxiolytic agents enable the animals to become more or less indifferent to the electric shock.
The percentage of protection against anxiety given by compounds of the invention was calculated by comparing the number of times the control animals passed over the plates when electrified with the number of times the treated animals passed over the electrified plates.

[5] = spontaneous motoricity in the mouse; assay type: in vivo; conditions: for Spontaneous motoricity (% of decrease): comparison at 25%-protection dose of four plates test
From the text: This test is described in U.S. Pat. No. 3,929,869.

[6] = Aggressivity of the isolated mouse (antiaggressive activity); assay type: in vivo
From the text: If a male mouse is isolated in a cage for three to four weeks, it will spontaneously attack any other animal of the same species which is placed in the same cage.
Mice wer isolated for the period of time required to render them spontaneously aggressive. Two mice, one rendered aggressive and one in a normal non-aggressive state, were then placed together and note was taken of the number of attacks by the aggressive mouse which occurred over a period of three minutes.
Each batch was composed of five pairs of animals.
The aggressive animals of each batch were then treated by oral route with the compound to be studied which was administered in such a way that the aggressive animals of each batch received a higher dose than those of the preceding batch.
Thirty minutes after administration, the couples were placed together again for a further three minutes and the number of attacks noted.

[7] = Action with respect to tremorine (cholinolytic properties); assay type: in vivo, mouse; conditions: 100 mg/kg oral, mice, 30 min before 100 mg/kg i.p. tremorine
Method: This test has been described by EVERETT (Nature, 1956, 177-238)
When injected into mice, tremorine produces peripheral cholinergic effects i.e. weeping, hypersalivation, sedation, diarrhea as well as central cholinergic effects i.e. tremors, akinesia.
Batches of 10 mice separated into individual cages, were given the compound to be studied, by oral route, 30 minutes before administration of an intraperitoneal dose of 100 mg/kg of tremorine.
Note was then taken in each batch of the percentage of animals presenting the various symptoms of tremorine-induced poisoning since at such a dose of tremorine 100% of the control animals are poisoned.
The results hereunder are expressed in percentage of mice protected against tremor at the dose of the compound of the invention which was administered: […]

[8] = Mus musculus, 0.5 h, mice, 30 min before test, read-out: % of decrease in number of combats
[9] = at the dose which provokes a 60%-decrease in the number of combats
[10] = Mus musculus, po, 3 h, read-out: % of protection against death

CCCC(CCC)(CCC)NC(=O)NC [Compound K, 1-(1,1-Di-n-propyl-n-butyl)-3-methyl-urea]
inhibition in vivo at 200 mg/kg [1, 8]: 42%
failures in the rota rod test ([2]; 300 mg/kg oral, mouse (ED25 in four plates test)): no failures
% of failures in rota rod test ([2]; 600 mg/kg oral): 0%
sedative effect relative to reference products ([2]; at ED25 of four plates test): much less sedative than diazepam and meprobamate
responders at 200 mg/kg ([3]; Mus musculus, 3 h, 200 mg/kg oral, mice, 15 min before 125 mg/kg pentylenetetrazole, read-out: % of protection against death): 30%
inhibition in vivo at 300 mg/kg ([4]; 0.5 h, 300 mg/kg oral, mouse, 30 min after administration, read-out: % of protection against anxiety): 25%
ED25 ([4]; 0.5 h, mouse): 300 mg/kg

CCCC(CCC)(CC(C)C)NC(N)=O [Compound P, 1-(1,1-Di-n-propyl-3-methyl-n-butyl)-urea]
inhibition in vivo at 460 mg/kg ([1]; Mus musculus, 0.5 h, 460 mg/kg, mice, 30 min before test, read-out: % of decrease in number of combats): 31%
% of failures in rota rod test ([2]; 690 mg/kg oral): 0%

C#CCNC(=O)NC(CCC)(CCC)CCC [Compound M, 1-(1,1-Di-n-propyl-n-butyl)-3-(2-propynyl)-urea]
inhibition in vivo at 254 mg/kg ([1]; Mus musculus, 0.5 h, 254 mg/kg, mice, 30 min before test, read-out: % of decrease in number of combats): 56%
% of failures in rota rod test ([2]; 635 mg/kg oral): 0%

CN1C(=O)CN=C(c2ccccc2)c2cc(Cl)ccc21 [diazepam, reference compound]
Spontaneous motoricity (% of decrease) ([5]; 2 mg/kg): 57%
decrease in spontaneous motoricity at dose giving 80% reduction in combats ([5]; dose producing 80% decrease in the number of combats): 40%
protection against anxiety ([1]; 0.69 mg/kg): 50%
decrease in number of combats obtainable without altering spontaneous motoricity ([1]; mice, without action on spontaneous motoricity): ≤ 15%
failures in the rota rod test [2, 9]: 12%
Rota rod (% of failures) ([2]; 2 mg/kg): 35%
sedative effects ([6]; 8 mg/kg): strongly sedative
reduction in the number of attacks ([6]; 8 mg/kg (strongly sedative), isolated mouse): 38%
activity in the isolated mouse test ([6]; doses active in four plates and electrically-provoked combat tests): devoid of activity
antiaggressive effect ([6]; up to 4 mg/kg, isolated mouse): no results
positive result in four plates test without sedative effect [4]: impossible
ED25 ([4]; 0.5 h, mouse): 2 mg/kg
ED50 in the four plates test ([4]; sedative effects too intense above 2 mg/kg): not possible to obtain a ED50

C=CCC(CCC)(CCC)NC(=O)NC [Compound L, 1-(1,1-Di-n-propyl-3-butenyl)-3-methyl-urea]
inhibition in vivo at 228 mg/kg ([1]; Mus musculus, 0.5 h, 228 mg/kg, mice, 30 min before test, read-out: % of decrease in number of combats): 53%

CCCCC(CCCC)(CCCC)NC(N)=O [Compound J, 1-(1,1-Di-n-butyl-n-pentyl)-urea]
inhibition in vivo at 200 mg/kg [1, 8]: 67%
% of failures in rota rod test ([2]; 500 mg/kg oral): 0%

CCC(CC)(CC)NC(N)=O [Compound F, 1-(1,1-Diethyl-n-propyl)-urea]
inhibition in vivo at 82 mg/kg ([1]; Mus musculus, 0.5 h, 82 mg/kg, mice, 30 min before test, read-out: % of decrease in number of combats): 50%
responders at 150 mg/kg [3, 10]: 50%
inhibition in vivo at 175 mg/kg ([4]; 0.5 h, 175 mg/kg oral, mouse, 30 min after administration, read-out: % of protection against anxiety): 16%

CCCC(C)(COC(N)=O)COC(N)=O [meprobamate, reference compound]
Spontaneous motoricity (% of decrease) ([5]; 79 mg/kg): 11%
protection against anxiety ([1]; 70 mg/kg): 50%
rota rod test effect ([2]; 170 mg/kg (ED50 in isolated mouse test)): 75%
failures in the rota rod test [2, 9]: 35%
Rota rod (% of failures) ([2]; 79 mg/kg): 30%
sedative effects at antiaggressive dose ([6]; 170 mg/kg): considerable
ED50 ([6]; 0.5 h, oral, isolated mouse, 30 min after administration, read-out: ED50 (50% fewer attacks)): 170 mg/kg
positive result in four plates test without sedative effect [4]: impossible
ED25 ([4]; 0.5 h, mouse): 79 mg/kg

CCCCC(C)(CC)NC(N)=O (stereo not shown) [Compound G, 1-(1-Methyl-1-ethyl-pentyl)-urea]
inhibition in vivo at 94 mg/kg ([1]; Mus musculus, 0.5 h, 94 mg/kg, mice, 30 min before test, read-out: % of decrease in number of combats): 48%
responders at 188 mg/kg [3, 10]: 20%
inhibition in vivo at 282 mg/kg ([4]; 0.5 h, 282 mg/kg oral, mouse, 30 min after administration, read-out: % of protection against anxiety): 18%

CCCC(CCC)(CCC)NC(=O)N(C)C [Compound I, 1-(1,1-Di-n-propyl-n-butyl)-3,3-dimethyl-urea]
inhibition in vivo at 200 mg/kg [1, 8]: 55%
inhibition in vivo at 350 mg/kg ([4]; 0.5 h, 350 mg/kg oral, mouse, 30 min after administration, read-out: % of protection against anxiety): 29%

CCCC(CCC)(NC(N)=O)C(C)C [Compound H, 1-(1-n-Propyl-1-isopropyl-n-butyl)-urea]
inhibition in vivo at 110 mg/kg ([1]; Mus musculus, 0.5 h, 110 mg/kg, mice, 30 min before test, read-out: % of decrease in number of combats): 50%
inhibition in vivo at 250 mg/kg ([4]; 0.5 h, 250 mg/kg oral, mouse, 30 min after administration, read-out: % of protection against anxiety): 39%

C=CCNC(=O)NC(CCC)(CCC)CCC [Compound N, 1-(1,1-Di-n-propyl-n-butyl)-3-(2-propenyl)-urea]
inhibition in vivo at 360 mg/kg ([1]; Mus musculus, 0.5 h, 360 mg/kg, mice, 30 min before test, read-out: % of decrease in number of combats): 30%
% of failures in rota rod test ([2]; 720 mg/kg oral): 0%
responders at 240 mg/kg ([3]; Mus musculus, 3 h, 240 mg/kg oral, mice, 15 min before 125 mg/kg pentylenetetrazole, read-out: % of protection against death): 20%

C=CCC(CCC)(CCC)NC(N)=O [Compound E, 1-(1,1-Di-n-propyl-3-butenyl)-urea]
% of protection against tremor [7]: 0%
inhibition in vivo at 50 mg/kg ([1]; Mus musculus, 0.5 h, 50 mg/kg, mice, 30 min before test, read-out: % of decrease in number of combats): 70%
responders at 300 mg/kg [3, 10]: 90%
inhibition in vivo at 100 mg/kg ([4]; 0.5 h, 100 mg/kg oral, mouse, 30 min after administration, read-out: % of protection against anxiety): 27%

CCC#CC(CCC)(CCC)NC(N)=O [Compound B, 1-(1,1-Di-n-propyl-2-pentynyl)-urea]
inhibition in vivo at 56.5 mg/kg ([1]; Mus musculus, 0.5 h, 56.5 mg/kg, mice, 30 min before test, read-out: % of decrease in number of combats): 52%

CC#CC(CCC)(CCC)NC(N)=O [Compound D, 1-(1,1-Di-n-propyl-2-butynyl)-urea]
inhibition in vivo at 74 mg/kg ([1]; Mus musculus, 0.5 h, 74 mg/kg, mice, 30 min before test, read-out: % of decrease in number of combats): 50%
% of failures in rota rod test ([2]; 250 mg/kg oral): 50%
responders at 80.5 mg/kg [3, 10]: 50%
anticonvulsant activity (in words) ([3]; pentylenetetrazole-induced seizure, mice, oral): considerable
